Measurements: publication PMC6199744, “Development of Chemical Proteomics for the Folateome and Analysis of the Kinetoplastid Folateome” (ACS Infectious Diseases, 2018)
Read-outs that look alike come from different tables or passages of the source.

Legend:
Assay type in all cases: binding
[1] = target: T1, HeLa cell extract proteins (Homo sapiens, UniProt Q8NFH4)
T1 construct: endogenous in cells; host or cells: HeLa cell extract
T1 sequence (Q8NFH4 1-326): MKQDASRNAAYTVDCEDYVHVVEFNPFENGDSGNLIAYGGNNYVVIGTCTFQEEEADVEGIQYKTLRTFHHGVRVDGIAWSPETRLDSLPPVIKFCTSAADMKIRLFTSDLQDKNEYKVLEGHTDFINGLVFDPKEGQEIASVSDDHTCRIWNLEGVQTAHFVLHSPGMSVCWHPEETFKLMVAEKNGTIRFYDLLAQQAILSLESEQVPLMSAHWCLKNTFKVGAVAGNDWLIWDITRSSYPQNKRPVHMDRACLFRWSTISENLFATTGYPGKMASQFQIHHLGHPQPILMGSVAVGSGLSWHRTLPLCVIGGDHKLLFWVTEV

[2] = target: T2, HeLa cell extract proteins (Homo sapiens, UniProt Q92945)
T2 construct: endogenous in cells; host or cells: HeLa cell extract
T2 sequence (Q92945 1-711): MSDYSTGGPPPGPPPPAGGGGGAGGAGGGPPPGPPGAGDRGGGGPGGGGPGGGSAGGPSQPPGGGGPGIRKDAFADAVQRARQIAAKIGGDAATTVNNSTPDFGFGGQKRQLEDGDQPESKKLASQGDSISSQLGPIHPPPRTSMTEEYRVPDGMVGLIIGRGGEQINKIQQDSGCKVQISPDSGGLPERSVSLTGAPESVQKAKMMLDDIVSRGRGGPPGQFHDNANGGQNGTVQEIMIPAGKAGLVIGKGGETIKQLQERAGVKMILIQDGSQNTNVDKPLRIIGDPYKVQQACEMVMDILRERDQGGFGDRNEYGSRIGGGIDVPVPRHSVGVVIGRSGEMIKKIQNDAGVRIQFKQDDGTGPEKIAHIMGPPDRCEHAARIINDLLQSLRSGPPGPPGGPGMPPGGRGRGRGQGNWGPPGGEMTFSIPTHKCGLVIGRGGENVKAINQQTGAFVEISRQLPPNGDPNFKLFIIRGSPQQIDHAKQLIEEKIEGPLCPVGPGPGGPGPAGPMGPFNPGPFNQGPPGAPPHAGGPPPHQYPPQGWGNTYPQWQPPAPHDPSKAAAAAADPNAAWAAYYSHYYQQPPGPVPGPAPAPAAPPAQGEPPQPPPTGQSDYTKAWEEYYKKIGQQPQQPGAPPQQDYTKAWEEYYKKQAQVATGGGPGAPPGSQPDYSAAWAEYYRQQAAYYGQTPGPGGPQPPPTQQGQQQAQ

[3] = target: T3, HeLa cell extract proteins (Homo sapiens, UniProt Q9NVI7)
T3 construct: endogenous in cells; host or cells: HeLa cell extract
T3 sequence (Q9NVI7 1-586): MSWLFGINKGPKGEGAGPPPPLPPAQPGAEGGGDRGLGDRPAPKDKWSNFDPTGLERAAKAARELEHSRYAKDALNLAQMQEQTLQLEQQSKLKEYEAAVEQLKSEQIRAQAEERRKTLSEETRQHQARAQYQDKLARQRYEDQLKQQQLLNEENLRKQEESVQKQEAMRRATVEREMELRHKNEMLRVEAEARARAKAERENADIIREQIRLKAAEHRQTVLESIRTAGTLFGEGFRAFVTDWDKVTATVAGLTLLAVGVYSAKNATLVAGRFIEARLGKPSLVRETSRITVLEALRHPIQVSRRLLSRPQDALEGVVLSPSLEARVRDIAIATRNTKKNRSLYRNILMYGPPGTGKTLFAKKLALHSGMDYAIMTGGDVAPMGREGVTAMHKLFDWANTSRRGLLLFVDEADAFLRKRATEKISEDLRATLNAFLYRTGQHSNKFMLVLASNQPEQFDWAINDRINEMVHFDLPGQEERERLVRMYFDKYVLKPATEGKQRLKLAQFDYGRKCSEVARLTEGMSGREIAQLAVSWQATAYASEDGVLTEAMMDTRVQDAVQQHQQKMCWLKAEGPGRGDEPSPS

[4] = target: T4, HeLa cell extract proteins (Homo sapiens, UniProt Q9UBM7)
T4 construct: endogenous in cells; host or cells: HeLa cell extract
T4 sequence (Q9UBM7 1-475): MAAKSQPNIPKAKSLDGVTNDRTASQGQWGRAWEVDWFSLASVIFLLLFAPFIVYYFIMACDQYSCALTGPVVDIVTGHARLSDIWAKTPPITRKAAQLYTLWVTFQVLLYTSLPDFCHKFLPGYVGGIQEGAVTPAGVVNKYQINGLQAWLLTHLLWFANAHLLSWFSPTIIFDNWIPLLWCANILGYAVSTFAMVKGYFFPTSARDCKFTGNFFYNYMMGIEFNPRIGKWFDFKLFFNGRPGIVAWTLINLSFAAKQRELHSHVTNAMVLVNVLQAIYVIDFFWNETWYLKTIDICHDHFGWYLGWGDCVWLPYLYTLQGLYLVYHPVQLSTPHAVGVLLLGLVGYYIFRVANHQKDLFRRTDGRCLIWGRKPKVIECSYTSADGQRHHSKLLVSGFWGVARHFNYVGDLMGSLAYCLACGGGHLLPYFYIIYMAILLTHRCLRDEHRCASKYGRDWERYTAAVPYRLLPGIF

[5] = target: T5, HeLa cell extract proteins (Homo sapiens, UniProt Q9UJP4)
T5 construct: endogenous in cells; host or cells: HeLa cell extract
T5 sequence (Q9UJP4 1-597): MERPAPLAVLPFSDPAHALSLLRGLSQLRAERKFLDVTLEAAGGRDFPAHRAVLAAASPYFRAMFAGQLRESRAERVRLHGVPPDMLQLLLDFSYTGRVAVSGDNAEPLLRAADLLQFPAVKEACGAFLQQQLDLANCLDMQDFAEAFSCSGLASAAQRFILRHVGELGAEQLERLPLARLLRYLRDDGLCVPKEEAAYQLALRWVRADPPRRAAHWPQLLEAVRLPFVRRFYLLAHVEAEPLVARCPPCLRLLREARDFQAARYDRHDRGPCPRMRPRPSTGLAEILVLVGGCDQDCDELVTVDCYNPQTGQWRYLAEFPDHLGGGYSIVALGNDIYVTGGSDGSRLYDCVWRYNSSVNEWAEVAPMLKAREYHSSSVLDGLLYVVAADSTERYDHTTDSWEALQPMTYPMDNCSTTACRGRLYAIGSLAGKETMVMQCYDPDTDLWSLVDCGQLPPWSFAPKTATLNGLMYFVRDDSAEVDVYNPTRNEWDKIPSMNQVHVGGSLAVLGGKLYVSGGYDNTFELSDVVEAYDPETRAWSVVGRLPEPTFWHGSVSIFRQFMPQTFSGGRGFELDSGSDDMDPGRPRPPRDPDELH

SMILES | fold changes relative to vehicle control ([1]; HeLa, protein NUP37) | fold changes relative to vehicle control ([2]; HeLa, protein KHSRP) | fold changes relative to vehicle control ([3]; HeLa, protein ATAD3A) | fold changes relative to vehicle control ([4]; HeLa, captured protein DHCR7) | fold changes relative to vehicle control ([5]; HeLa, protein KLHL21) | fold changes relative to vehicle control ([1]; captured protein NUP37, HeLa) | fold changes relative to vehicle control ([2]; captured protein KHSRP, HeLa) | fold changes relative to vehicle control ([4]; captured protein DHCR7, HeLa) | fold changes relative to vehicle control [1] | fold changes relative to vehicle control [2] | fold changes relative to vehicle control [3] | fold changes relative to vehicle control [4] | fold changes relative to vehicle control [5]
Nc1nc2c(c(=O)[nH]1)N(C=O)C(CNc1ccc(C(=O)N[C@@H](CCC(=O)O)C(=O)O)cc1)CN2 (some centres unmarked) [LEU, leucovorin] | 0.86 | 0.9 | 0.98 | 0.99 | 1.02 |  |  |  |  |  |  |  | 
NCCCNc1ccc(C(=O)NC(CCC(=O)O)C(=O)O)cc1 (centres unmarked) [compound 7] | 0.96 | 0.95 | 1.13 | 0.98 | 0.97 |  |  |  |  |  |  |  | 
CCCCCCOc1cccc(Cc2cnc(N)nc2N)c1 [compound 2] |  |  | 1.15 |  | 1.01 | 0.98 | 0.96 | 1.03 |  |  |  |  | 
CCCCCCOc1ccc(Cc2cnc(N)nc2N)cc1 [compound 1] |  |  | 1.13 |  | 1.06 | 1.14 | 0.74 | 0.95 |  |  |  |  | 
Nc1nc2cccc(-c3ccccc3)c2n1Cc1ccc(Cl)c(Cl)c1 [compound 3] |  |  | 1.05 |  | 1.04 | 1.01 | 0.84 | 1.02 |  |  |  |  | 
NCCOCCOCC(=O)Nc1nc2ncc(CNc3ccc(C(=O)NC(CCC(=O)O)C(=O)O)cc3)nc2c(=O)[nH]1 (centres unmarked) [compound 6] | 0.9 | 0.96 | 1.17 | 0.96 | 1 |  |  |  |  |  |  |  | 
Nc1nc2[nH]cc(CCc3ccc(C(=O)N[C@@H](CCC(=O)O)C(=O)O)cc3)c2c(=O)[nH]1 [PTX, pemetrexed] |  |  |  |  |  |  |  |  | 0.91 | 0.97 | 1.12 | 0.98 | 0.95
